# In US9932637B2, “Genetic polymorphisms associated with cardiovascular disorders and drug response, methods of detection and uses thereof” (CELERA CORPORATION, priority 2003, dated 2018):
# Test system: patients with prior myocardial infarction (CARE study)
# Assay: CARE: association of SNPs with pravastatin treatment in cardiovascular events prevention (logistic regression, odds ratio pravastatin vs placebo by genotype; Table 8)
# Format: in vivo, human
# Conditions: for Fatal/Non-fatal Atherosclerotic CV Disease, n/total (%) / Hosp. for Cardiovascular Disease, n/total (%) / Total Cardiovascular Disease Events, n/total (%) / Prava vs. Placebo Odds Ratio, 0 Rare Alleles / Prava vs. Placebo Odds Ratio, 1 Rare Alleles / Prava vs. Placebo Odds Ratio, 2 Rare Alleles / Fatal CHD/Definite Non-fatal MI, n/total (%) / Total Coronary Heart Disease Events, n/total (%): All Patients; for Fatal/Non-fatal Atherosclerotic CV Disease, n/total (%) / Hosp. for Cardiovascular Disease, n/total (%) / Total Cardiovascular Disease Events, n/total (%) / Fatal CHD/Definite Non-fatal MI, n/total (%) / Total Coronary Heart Disease Events, n/total (%): Prava; for Stroke, n/total (%): PECAM1 hCV16170911, All Patients, Prava arm
# Source text: In order to identify genetic markers associated with acute coronary events (e.g. MI, stroke, unstable angina, congestive heart failure, etc.) or response to statin treatment for the prevention of coronary events, samples from the Cholesterol and Recurrent Events (CARE) study (a randomized multicentral double-blinded trial on secondary prevention of acute coronary events with pravastatin) (Sacks et al., 1991, Am. J. Cardiol. 68: 1436-1446) were genotyped. A well-documented myocardial infarction (MI) was one of the enrollment criteria for entry into the CARE study. Patients were enrolled in the CARE trial from 80 participating study centers. […] Patients were randomized to receive either 40 mg of pravastatin once daily or a matching placebo. The primary endpoint of the trial was death from coronary heart disease and the median duration of follow-up was 5.0 years (range, 4.0 to 6.2 years). […] Secondary endpoints of other related cardiovascular or metabolic disease events, and changes in clinical variables were also recorded in pravastatin-treated and placebo groups. All individuals included in the study had signed a written informed consent form and the study protocol was approved by the respective Institutional Review Boards (IRBs).
# For genotyping SNPs in CARE patient samples, DNA was extracted from blood samples using conventional DNA extraction methods such as the QIA-amp kit from Qiagen. Genotypes were obtained on an ABI PRISM® 7900HT Sequence Detection PCR system (Applied Biosystems, Foster City, Calif.) by kinetic allele-specific PCR, similar to the method described by Germer et al. (Germer S., Holland M. J., Higuchi R. 2000, Genome Res. 10: 258-266).
# Statistical analysis for association of SNPs with pravastatin treatment in cardiovascular events prevention (Table 8) was carried out using an overall logistic regression model that included an intercept, a parameter for the effect of a genotype containing two rare alleles versus a genotype containing no rare alleles, a parameter for the effect of a genotype containing one rare allele versus a genotype containing no rare alleles, a parameter for the effect of use of pravastatin versus the use of placebo, and parameters for the interaction effects between SNP genotypes and pravastatin use. The test of the overall model is a chi-square test with two degrees of freedom for analyses containing all three genotypes, and one degree of freedom for analyses containing two genotypes.
# Effect sizes were estimated through odds ratios (pravastatin group versus placebo) for carriers of each genotype (groups of 0, 1, and 2 minor allele carriers). The effect was considered to be significant if p-value for testing whether any of the interactions between SNP genotypes and pravastatin use were <0.05. […] Odds ratios less than one indicate that the specific SNP allele has a protective effect and odds ratios greater than one indicate that the specific SNP allele has an adverse effect.
# [1] = NPC1 hCV7490135, Cardiovascular Mortality
# [2] = NPC1 hCV7490135, Fatal Atherosclerotic Cardiovascular Disease
# [3] = NPC1 hCV7490135, Fatal/Non-fatal Atherosclerotic CV Disease
# [4] = NPC1 hCV7490135, Hosp. for Cardiovascular Disease
# [5] = NPC1 hCV7490135, Total Cardiovascular Disease Events
# [6] = NPC1 hCV7490135, Total Coronary Heart Disease Events
# [7] = NPC1 hCV25472673, Fatal CHD/Definite Non-fatal MI
# [8] = NPC1 hCV25472673, Fatal/Non-fatal Atherosclerotic CV Disease
# [9] = NPC1 hCV25472673, Hosp. for Cardiovascular Disease
# [10] = NPC1 hCV25472673, Total Cardiovascular Disease Events
# [11] = NPC1 hCV25472673, Total Coronary Heart Disease Events
# [12] = PEMT hCV7443062, Fatal CHD/Definite Non-fatal MI
smiles,measurement,setting,value
CC[C@H](C)C(=O)O[C@H]1C[C@H](O)C=C2C=C[C@H](C)[C@H](CC[C@@H](O)C[C@@H](O)CC(=O)O)[C@H]21 [pravastatin],"Fatal/Non-fatal Atherosclerotic CV Disease, n/total (%)","NPC1 hCV7490135, 2 Rare Alleles, n/total 93/324",(28.7%)
same,"Hosp. for Cardiovascular Disease, n/total (%)","NPC1 hCV7490135, 2 Rare Alleles, n/total 117/324",(36.1%)
same,"Total Cardiovascular Disease Events, n/total (%)","NPC1 hCV7490135, 2 Rare Alleles, n/total 119/324",(36.7%)
same,"Prava vs. Placebo Odds Ratio, 0 Rare Alleles",[1],1.30
same,"Prava vs. Placebo Odds Ratio, 1 Rare Alleles",[1],0.83
same,"Prava vs. Placebo Odds Ratio, 2 Rare Alleles",[1],0.20
same,"Prava vs. Placebo Odds Ratio, 0 Rare Alleles",[2],1.25
same,"Prava vs. Placebo Odds Ratio, 1 Rare Alleles",[2],0.83
same,"Prava vs. Placebo Odds Ratio, 2 Rare Alleles",[2],0.20
same,"Prava vs. Placebo Odds Ratio, 0 Rare Alleles",[3],1.07
same,"Prava vs. Placebo Odds Ratio, 1 Rare Alleles",[3],0.73
same,"Prava vs. Placebo Odds Ratio, 2 Rare Alleles",[3],0.56
same,"Prava vs. Placebo Odds Ratio, 0 Rare Alleles",[4],1.01
same,"Prava vs. Placebo Odds Ratio, 1 Rare Alleles",[4],0.76
same,"Prava vs. Placebo Odds Ratio, 2 Rare Alleles",[4],0.52
same,"Prava vs. Placebo Odds Ratio, 0 Rare Alleles",[5],1.02
same,"Prava vs. Placebo Odds Ratio, 1 Rare Alleles",[5],0.75
same,"Prava vs. Placebo Odds Ratio, 2 Rare Alleles",[5],0.52
same,"Prava vs. Placebo Odds Ratio, 0 Rare Alleles",[6],1.07
same,"Prava vs. Placebo Odds Ratio, 1 Rare Alleles",[6],0.72
same,"Prava vs. Placebo Odds Ratio, 2 Rare Alleles",[6],0.58
same,"Fatal CHD/Definite Non-fatal MI, n/total (%)","NPC1 hCV25472673, 0 Rare Alleles, n/total 65/596",(10.9%)
same,"Total Coronary Heart Disease Events, n/total (%)","NPC1 hCV25472673, 0 Rare Alleles, n/total 193/596",(32.4%)
same,"Fatal/Non-fatal Atherosclerotic CV Disease, n/total (%)","NPC1 hCV25472673, 0 Rare Alleles, n/total 221/596",(37.1%)
same,"Hosp. for Cardiovascular Disease, n/total (%)","NPC1 hCV25472673, 0 Rare Alleles, n/total 262/596",(44.0%)
same,"Total Cardiovascular Disease Events, n/total (%)","NPC1 hCV25472673, 0 Rare Alleles, n/total 274/596",(46.0%)
same,"Fatal CHD/Definite Non-fatal MI, n/total (%)","NPC1 hCV25472673, 1 Rare Allele, n/total 56/664",(8.4%)
same,"Total Coronary Heart Disease Events, n/total (%)","NPC1 hCV25472673, 1 Rare Allele, n/total 186/664",(28.0%)
same,"Fatal/Non-fatal Atherosclerotic CV Disease, n/total (%)","NPC1 hCV25472673, 1 Rare Allele, n/total 213/664",(32.1%)
same,"Hosp. for Cardiovascular Disease, n/total (%)","NPC1 hCV25472673, 1 Rare Allele, n/total 255/664",(38.4%)
same,"Total Cardiovascular Disease Events, n/total (%)","NPC1 hCV25472673, 1 Rare Allele, n/total 259/664",(39.0%)
same,"Fatal CHD/Definite Non-fatal MI, n/total (%)","NPC1 hCV25472673, 2 Rare Alleles, n/total 19/242",(7.9%)
same,"Total Coronary Heart Disease Events, n/total (%)","NPC1 hCV25472673, 2 Rare Alleles, n/total 59/242",(24.4%)
same,"Fatal/Non-fatal Atherosclerotic CV Disease, n/total (%)","NPC1 hCV25472673, 2 Rare Alleles, n/total 68/242",(28.1%)
same,"Hosp. for Cardiovascular Disease, n/total (%)","NPC1 hCV25472673, 2 Rare Alleles, n/total 88/242",(36.4%)
same,"Total Cardiovascular Disease Events, n/total (%)","NPC1 hCV25472673, 2 Rare Alleles, n/total 90/242",(37.2%)
same,"Prava vs. Placebo Odds Ratio, 0 Rare Alleles",[7],1.00
same,"Prava vs. Placebo Odds Ratio, 1 Rare Alleles",[7],0.65
same,"Prava vs. Placebo Odds Ratio, 2 Rare Alleles",[7],0.41
same,"Prava vs. Placebo Odds Ratio, 0 Rare Alleles",[8],1.03
same,"Prava vs. Placebo Odds Ratio, 1 Rare Alleles",[8],0.73
same,"Prava vs. Placebo Odds Ratio, 2 Rare Alleles",[8],0.41
same,"Prava vs. Placebo Odds Ratio, 0 Rare Alleles",[9],1.02
same,"Prava vs. Placebo Odds Ratio, 1 Rare Alleles",[9],0.72
same,"Prava vs. Placebo Odds Ratio, 2 Rare Alleles",[9],0.40
same,"Prava vs. Placebo Odds Ratio, 0 Rare Alleles",[10],1.03
same,"Prava vs. Placebo Odds Ratio, 1 Rare Alleles",[10],0.71
same,"Prava vs. Placebo Odds Ratio, 2 Rare Alleles",[10],0.39
same,"Prava vs. Placebo Odds Ratio, 0 Rare Alleles",[11],1.01
same,"Prava vs. Placebo Odds Ratio, 1 Rare Alleles",[11],0.73
same,"Prava vs. Placebo Odds Ratio, 2 Rare Alleles",[11],0.44
same,"Stroke, n/total (%)",0 Rare Alleles,(1.5%)
same,"Stroke, n/total (%)",1 Rare Allele,(3.1%)
same,"Stroke, n/total (%)",2 Rare Alleles,(0.9%)
same,"Fatal CHD/Definite Non-fatal MI, n/total (%)","PEMT hCV7443062, 0 Rare Alleles, n/total 34/478",(7.1%)
same,"Fatal CHD/Definite Non-fatal MI, n/total (%)","PEMT hCV7443062, 1 Rare Allele, n/total 72/735",(9.8%)
same,"Fatal CHD/Definite Non-fatal MI, n/total (%)","PEMT hCV7443062, 2 Rare Alleles, n/total 34/305",(11.1%)
same,"Prava vs. Placebo Odds Ratio, 0 Rare Alleles",[12],0.42
same,"Prava vs. Placebo Odds Ratio, 1 Rare Alleles",[12],0.87
